pIC50: −log10 of the molar value. Starred links: 1 amine or outer side, 2 acyl side, 3 side chain; linkers in the order of their positions; H or OH if unused. Non-standard residues stand in square brackets, D forms with d. Residues, ends and D or L forms follow the SMILES beside them. Groups on a side chain read outwards from the residue. ξ: configuration not given here. *: point of attachment. Oic(3aξ,7aξ) = O=C(O)[C@@H]1CC2CCCCC2N1; X1 = N=C(N)NCCCC[C@H](N)CN*; Dab = NCC[C@H](N)C(=O)O; CO = O=C([*:1])[*:2]
Experiments:
VEGF-A165/NRP-2 complex = target: T1, VEGF-A165/NRP-2 complex (Homo sapiens, UniProt O60462); assay: Competitive ELISA-like assay, VEGF-A165/NRP-2 complex formation; type: binding; conditions: tested 0.1–10 µM
T1 construct: purchased R&D Systems
T1 sequence (O60462 23-864 limits assumed): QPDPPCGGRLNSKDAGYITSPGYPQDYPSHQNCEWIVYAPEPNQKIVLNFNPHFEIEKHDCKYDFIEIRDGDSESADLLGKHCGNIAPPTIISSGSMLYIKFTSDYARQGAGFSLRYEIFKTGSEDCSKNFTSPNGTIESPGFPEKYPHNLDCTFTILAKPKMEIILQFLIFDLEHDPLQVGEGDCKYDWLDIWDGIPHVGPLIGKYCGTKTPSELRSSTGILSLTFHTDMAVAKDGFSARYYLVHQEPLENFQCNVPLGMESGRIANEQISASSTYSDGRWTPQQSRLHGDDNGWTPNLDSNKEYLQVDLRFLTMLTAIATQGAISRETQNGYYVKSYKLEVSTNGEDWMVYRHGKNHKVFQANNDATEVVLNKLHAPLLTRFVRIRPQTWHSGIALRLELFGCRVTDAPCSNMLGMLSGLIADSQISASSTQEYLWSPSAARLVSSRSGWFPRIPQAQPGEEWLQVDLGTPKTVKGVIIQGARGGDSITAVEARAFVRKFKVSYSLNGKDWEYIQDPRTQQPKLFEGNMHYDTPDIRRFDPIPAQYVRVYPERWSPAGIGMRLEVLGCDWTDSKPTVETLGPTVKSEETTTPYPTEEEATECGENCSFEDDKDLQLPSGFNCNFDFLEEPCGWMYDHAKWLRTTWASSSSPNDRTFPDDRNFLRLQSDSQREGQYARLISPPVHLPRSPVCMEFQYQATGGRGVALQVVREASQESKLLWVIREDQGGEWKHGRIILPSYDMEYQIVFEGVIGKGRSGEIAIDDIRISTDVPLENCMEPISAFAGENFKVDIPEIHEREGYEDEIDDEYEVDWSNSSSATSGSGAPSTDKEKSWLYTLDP
From the text: (§1) Amino acid sequence homology for primary structures of NRP-1 and NRP-2 is 44% [81, 82]. Structural studies have shown that both receptors bind VEGF-A165 using a conserved binding pocket core, formed by the b1 subdomain loops. VEGF-A165 interacts also with VEGF-R1 and R2 receptors by different fragments encoded by exons 1–5 [84, 85]. Affinity studies were done using modified ELISA-like assay, performed in the same manner as affinity tests for NRP-1 after optimization of method for individual protein. […] However, this value is more than two times higher compared to VEGF-A165/NRP-1 complex inhibition.
(§2) This method was previously described for NRP-1 [44, 45, 46]. […] Next, 100 µL chemiluminescent substrate was added, and luminescence was quantified using Tecan Infinite F200Pro microplate reader (Männedorf, Switzerland). […] Percentages of inhibition were calculated by the following formula:100% − [[(S − N)/(P − N)]∙100%](1) where S is the signal intensity measured in wells with urea–peptide hybrid. The IC50 of each urea–peptide hybrid was calculated using the nonlinear regression function with GraphPad Prism Version-5.01 (GraphPad Software, San Diego, CA, USA). […]

[1] = target: T2, VEGF-A165/VEGF-R1 complex (Homo sapiens, UniProt P17948); assay: Competitive ELISA-like assay, VEGF-A165/VEGF-R1 complex formation; type: binding
T2 construct: purchased R&D Systems
T2 sequence (P17948 27-756 limits assumed, one chain of several): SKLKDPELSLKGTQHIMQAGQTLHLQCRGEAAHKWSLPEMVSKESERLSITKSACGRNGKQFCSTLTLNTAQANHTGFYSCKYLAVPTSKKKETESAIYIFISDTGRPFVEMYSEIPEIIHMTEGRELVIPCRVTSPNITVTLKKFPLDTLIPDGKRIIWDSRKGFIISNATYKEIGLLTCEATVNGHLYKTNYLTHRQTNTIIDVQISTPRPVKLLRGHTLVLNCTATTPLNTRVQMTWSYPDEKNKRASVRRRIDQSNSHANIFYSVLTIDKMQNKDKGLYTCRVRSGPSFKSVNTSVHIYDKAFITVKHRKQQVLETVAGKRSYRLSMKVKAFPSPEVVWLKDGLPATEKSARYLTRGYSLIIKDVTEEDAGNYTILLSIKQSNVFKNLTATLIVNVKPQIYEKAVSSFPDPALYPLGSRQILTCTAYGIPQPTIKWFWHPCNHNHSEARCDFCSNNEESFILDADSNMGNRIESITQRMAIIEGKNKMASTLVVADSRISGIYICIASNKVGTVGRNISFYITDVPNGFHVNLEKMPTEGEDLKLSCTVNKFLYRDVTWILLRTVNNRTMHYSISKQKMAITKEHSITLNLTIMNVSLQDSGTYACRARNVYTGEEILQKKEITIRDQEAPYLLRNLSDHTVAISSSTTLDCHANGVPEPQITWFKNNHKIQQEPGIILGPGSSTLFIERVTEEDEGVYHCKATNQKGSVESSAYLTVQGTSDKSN
From the text: as §1, §2

pIC50 (VEGF-A165/NRP-2 complex): 6.32 | IC50, VEGF-A165/VEGF-R1 complex formation [1]: no affinity
Compound: N=C(N)NCCCC[C@H](N)CNC(=O)NCC[C@H](N)C(=O)N[C@@H](CCN)C(=O)N1C2CCCCC2C[C@H]1C(=O)N[C@@H](CCCNC(=N)N)C(=O)O (stereo partly drawn) [Compound 6, H-Dab(hArg^U)Dab-Oic-Arg-OH] (H-[Dab]([CO-X1])[Dab][Oic(3aξ,7aξ)]R-OH)
